Assay results from ChEMBL document CHEMBL4689842, “EUbOPEN Chemogenomics Library wave 1” (2021).

Tested on: Fibroblast
Assay: Incucyte cell viability with human fibroblast; also: filed as whole numbers so only -1 and 0 and 1 occur
Type: toxicity, cell-based
Conditions: 10 µM, compound concentration 10 uM
[1] = 6 h, replicate number 1, timepoint 6 hours
[2] = 12 h, replicate number 1, timepoint 12 hours
[3] = 18 h, replicate number 1, timepoint 18 hours
[4] = 24 h, replicate number 1, timepoint 24 hours
[5] = 0 h, replicate number 2, timepoint 0 hours
[6] = 6 h, replicate number 2, timepoint 6 hours
[7] = 0 h, replicate number 1, timepoint 0 hours
[8] = 12 h, replicate number 2, timepoint 12 hours
[9] = 18 h, replicate number 2, timepoint 18 hours
[10] = 24 h, replicate number 2, timepoint 24 hours

SMILES | Growth Rate [1] | Growth Rate [2] | Growth Rate [3] | Growth Rate [4] | Growth Rate [5] | Growth Rate [6] | Growth Rate [7] | Growth Rate [8] | Growth Rate [9] | Growth Rate [10]
CCOC(=O)c1c(C)[nH]c2ccc3c(c12)CN1CCc2cc(OC)ccc2C1O3 (centres undefined) | 0 | 0 | 0 | 0 |  |  |  |  |  | 
COc1ccc(S(=O)(=O)N(CCO)c2ccccc2CN(C)C/C=C/c2ccc(Cl)cc2)cc1.O=P(O)(O)O | 0 | 0 | 0 | 0 | 1 | 1 |  |  |  | 
COc1cc2ncnc(Nc3ccc(F)c(Cl)c3)c2cc1NC(=O)/C=C/CN1CCCCC1 [DACOMITINIB ANHYDROUS] | 0 | 0 | 0 | 0 | 1 |  |  |  |  | 
COc1ccc(-c2ccc3c(N4CCOCC4)nc(N4C[C@@H](C)O[C@@H](C)C4)nc3n2)cc1CO [Ku-0063794] |  | 1 | 1 | 0 |  | 1 | 1 | 0 | 0 | 
NC(=O)c1cccc(-c2cc(Nc3ccc(OC(F)(F)F)cc3)ncn2)c1 | 0 | 0 | 0 | 0 | 0 | 1 | 1 | 1 | 1 | 1
C=CCn1c(=O)c2cnc(Nc3ccc(N4CCN(C)CC4)cc3)nc2n1-c1cccc(C(C)(C)O)n1 [ADAVOSERTIB] | 0 | 0 | 0 | 0 |  |  | 0 |  |  | 
C[C@H]1Oc2cc(cnc2N)-c2c(nn(C)c2C#N)CN(C)C(=O)c2ccc(F)cc21 [LORLATINIB] | 0 | 0 | 0 | 0 | 0 |  |  |  |  | 
CNc1cc(Oc2cc(C(=O)Nc3cc(N4CCN(C)CC4)cc(C(F)(F)F)c3)ccc2C)ncn1 | 0 | 0 | 0 | 0 |  |  | 0 |  |  | 
CCc1cccc(CC)c1NC(=O)c1nn(C)c2c1CCc1cnc(Nc3ccc(C(=O)NC4CCN(C)CC4)cc3OC(F)(F)F)nc1-2 | 1 | 0 | 0 | 0 |  |  | 0 |  |  | 1
O=C(Nc1ccc(-n2nc(-c3cccnc3)cc2C(F)(F)F)cn1)c1ccc(-c2ccccc2)c(F)c1 [BI 2049] | 0 | 0 | 0 | 0 |  |  | 0 |  |  | 
CCCS(=O)(=O)c1nc(NC2CC2)cc(-c2ccc3c(ccn3C3CC(C)(C)NC(C)(C)C3)c2)n1 | 0 | 0 | 0 | 0 |  |  | 0 |  | 1 | 
CN1CCC(=C2c3ccccc3CC(=O)c3sccc32)CC1.O=C(O)/C=C/C(=O)O [KETOTIFEN FUMARATE] | 0 | 0 | 0 | 0 |  |  | 0 |  |  | 
CN(C)C(=O)C(CCN1CCC(O)(c2ccc(Cl)cc2)CC1)(c1ccccc1)c1ccccc1.Cl [LOPERAMIDE HYDROCHLORIDE] | 0 | 0 | 0 | 0 |  |  |  |  |  | 
O=C1N/C(=N/c2ccccc2F)S/C1=C\c1ccc(C(=O)O)cc1 |  |  |  | 0 |  |  |  |  |  | 
